Source: PubChem BioAssay AID1918948 (Molecular Pharmacology Branch, DTP, NCI, 2023)

System: K-562 leukemia growth, % test/control
Assay: Anticancer human tumor K-562 cell line growth inhibition;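 note: spheroids exposed to compounds for 7 days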;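 for viability, T/C: 100% = DMSO vehicle wells and lower values mean fewer viable cells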
Conditions: spheroids with HUVEC and MSC; for IC50: curve of first compound; for viability, T/C: stronger effect = lower value; active = viability on the fitted dose curve at most 10% of control; inactive = the rest
Outline: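 Multicellular complex spheroids of tumor cells with human endothelial cells (HUVEC) and mesenchymal stem cells; the LSD1 inhibitor iadademstat was combined with standard-of-care or investigational agents. Top concentration at or near clinical Cmax, half-log dilutions; final DMSO ≤0.25%.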

[1] = second compound 0.1 µM, first compound 0.0316 µM
[2] = second compound 0.1 µM, first compound 0.1 µM
[3] = second compound 0.316 µM, first compound 0.0316 µM
[4] = second compound 0.316 µM, first compound 0.1 µM
[5] = second compound 1 µM, first compound 0.0316 µM
[6] = second compound 1 µM, first compound 0.1 µM
[7] = second compound 3.16 µM, first compound 0.0316 µM
[8] = second compound 3.16 µM, first compound 0.1 µM
[9] = second compound 10 µM, first compound 0.0316 µM
[10] = second compound 10 µM, first compound 0.1 µM

CC1(C)CCC(CN2CCN(c3ccc(C(=O)NS(=O)(=O)c4ccc(NCC5CCOCC5)c([N+](=O)[O-])c4)c(Oc4cnc5[nH]ccc5c4)c3)CC2)=C(c2ccc(Cl)cc2)C1 + NC1CC1c1ccc(-c2cccc(O)c2)cc1
3190 nM: IC50 (second compound 10 µM)
4700 nM: IC50 (second compound 0.316 µM)
active: viability, T/C (second compound 0.1 µM, first compound 10 µM) 1.4% | viability, T/C (second compound 0.316 µM, first compound 10 µM) 1.76% | viability, T/C (second compound 1 µM, first compound 10 µM) 1.59% | viability, T/C (second compound 3.16 µM, first compound 10 µM) 1.97% | viability, T/C (second compound 10 µM, first compound 10 µM) 1.78%
inactive: viability, T/C [1] 112% | viability, T/C [2] 114% | viability, T/C (second compound 0.1 µM, first compound 0.316 µM) 118% | viability, T/C (second compound 0.1 µM, first compound 1 µM) 121% | viability, T/C (second compound 0.1 µM, first compound 3.16 µM) 74.6% | viability, T/C [3] 104% | viability, T/C [4] 109% | viability, T/C (second compound 0.316 µM, first compound 0.316 µM) 110% | viability, T/C (second compound 0.316 µM, first compound 1 µM) 114% | viability, T/C (second compound 0.316 µM, first compound 3.16 µM) 75.4% | viability, T/C [5] 102% | viability, T/C [6] 106% | viability, T/C (second compound 1 µM, first compound 0.316 µM) 106% | viability, T/C (second compound 1 µM, first compound 1 µM) 108% | viability, T/C (second compound 1 µM, first compound 3.16 µM) 71.8% | viability, T/C [7] 105% | viability, T/C [8] 105% | viability, T/C (second compound 3.16 µM, first compound 0.316 µM) 107% | viability, T/C (second compound 3.16 µM, first compound 1 µM) 102% | viability, T/C (second compound 3.16 µM, first compound 3.16 µM) 70.7% | viability, T/C [9] 102% | viability, T/C [10] 104% | viability, T/C (second compound 10 µM, first compound 0.316 µM) 105% | viability, T/C (second compound 10 µM, first compound 1 µM) 104% | viability, T/C (second compound 10 µM, first compound 3.16 µM) 50.4%
4650 nM: IC50 (second compound 0.1 µM)
4520 nM: IC50 (second compound 1 µM)
4470 nM: IC50 (second compound 3.16 µM)

Cn1ncnc1C1c2n[nH]c(=O)c3cc(F)cc(c23)NC1c1ccc(F)cc1 (stereo not given) + NC1CC1c1ccc(-c2cccc(O)c2)cc1
> 100 nM: IC50 (second compound 0.1 µM) | IC50 (second compound 0.316 µM) | IC50 (second compound 1 µM) | IC50 (second compound 3.16 µM) | IC50 (second compound 10 µM)
inactive: viability, T/C (second compound 0.1 µM, first compound 0.000316 µM) 112% | viability, T/C (second compound 0.1 µM, first compound 0.001 µM) 110% | viability, T/C (second compound 0.1 µM, first compound 0.00316 µM) 108% | viability, T/C (second compound 0.1 µM, first compound 0.01 µM) 108% | viability, T/C [1] 105% | viability, T/C [2] 101% | viability, T/C (second compound 0.316 µM, first compound 0.000316 µM) 108% | viability, T/C (second compound 0.316 µM, first compound 0.001 µM) 105% | viability, T/C (second compound 0.316 µM, first compound 0.00316 µM) 105% | viability, T/C (second compound 0.316 µM, first compound 0.01 µM) 105% | viability, T/C [3] 101% | viability, T/C [4] 97.2% | viability, T/C (second compound 1 µM, first compound 0.000316 µM) 106% | viability, T/C (second compound 1 µM, first compound 0.001 µM) 102% | viability, T/C (second compound 1 µM, first compound 0.00316 µM) 97.8% | viability, T/C (second compound 1 µM, first compound 0.01 µM) 96.7% | viability, T/C [5] 97.2% | viability, T/C [6] 95.2% | viability, T/C (second compound 3.16 µM, first compound 0.000316 µM) 106% | viability, T/C (second compound 3.16 µM, first compound 0.001 µM) 100% | viability, T/C (second compound 3.16 µM, first compound 0.00316 µM) 95.6% | viability, T/C (second compound 3.16 µM, first compound 0.01 µM) 98.8% | viability, T/C [7] 98.5% | viability, T/C [8] 93.2% | viability, T/C (second compound 10 µM, first compound 0.000316 µM) 101% | viability, T/C (second compound 10 µM, first compound 0.001 µM) 101% | viability, T/C (second compound 10 µM, first compound 0.00316 µM) 99.7% | viability, T/C (second compound 10 µM, first compound 0.01 µM) 98.4% | viability, T/C [9] 95.4% | viability, T/C [10] 89.1%

NS(=O)(=O)OCC1CC(n2ccc3c(NC4CCc5ccccc54)ncnc32)CC1O (stereo not given) + NC1CC1c1ccc(-c2cccc(O)c2)cc1
inactive: viability, T/C (second compound 0.1 µM, first compound 0.00949 µM) 50.7% | viability, T/C (second compound 0.1 µM, first compound 0.03 µM) 32.8% | viability, T/C (second compound 0.1 µM, first compound 0.0949 µM) 37.7% | viability, T/C (second compound 0.1 µM, first compound 0.3 µM) 19.2% | viability, T/C (second compound 0.1 µM, first compound 0.949 µM) 11.2% | viability, T/C (second compound 0.316 µM, first compound 0.00949 µM) 47% | viability, T/C (second compound 0.316 µM, first compound 0.03 µM) 29.9% | viability, T/C (second compound 0.316 µM, first compound 0.0949 µM) 32% | viability, T/C (second compound 0.316 µM, first compound 0.3 µM) 16.3% | viability, T/C (second compound 0.316 µM, first compound 0.949 µM) 10.3% | viability, T/C (second compound 1 µM, first compound 0.00949 µM) 46.8% | viability, T/C (second compound 1 µM, first compound 0.03 µM) 27.1% | viability, T/C (second compound 1 µM, first compound 0.0949 µM) 32.8% | viability, T/C (second compound 1 µM, first compound 0.3 µM) 14.8% | viability, T/C (second compound 1 µM, first compound 0.949 µM) 10.3% | viability, T/C (second compound 3.16 µM, first compound 0.00949 µM) 45.6% | viability, T/C (second compound 3.16 µM, first compound 0.03 µM) 25.7% | viability, T/C (second compound 3.16 µM, first compound 0.0949 µM) 30.2% | viability, T/C (second compound 3.16 µM, first compound 0.3 µM) 13.2% | viability, T/C (second compound 10 µM, first compound 0.00949 µM) 30.5% | viability, T/C (second compound 10 µM, first compound 0.03 µM) 19.8% | viability, T/C (second compound 10 µM, first compound 0.0949 µM) 21.2% | viability, T/C (second compound 10 µM, first compound 0.3 µM) 9.28%
active: viability, T/C (second compound 0.1 µM, first compound 3 µM) 4.04% | viability, T/C (second compound 0.316 µM, first compound 3 µM) 3.18% | viability, T/C (second compound 1 µM, first compound 3 µM) 3.44% | viability, T/C (second compound 3.16 µM, first compound 0.949 µM) 8.49% | viability, T/C (second compound 3.16 µM, first compound 3 µM) 1.8% | viability, T/C (second compound 10 µM, first compound 0.949 µM) 2.95% | viability, T/C (second compound 10 µM, first compound 3 µM) 0.72%
< 9.49 nM: IC50 (second compound 0.1 µM) | IC50 (second compound 0.316 µM) | IC50 (second compound 1 µM) | IC50 (second compound 3.16 µM) | IC50 (second compound 10 µM)
